Measurements taken from ChEMBL document CHEMBL1201862, “PubChem BioAssay data set” (2004).
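Following 48 hours of exposure in 96-well plates, responses at five concentrations were used to interpolate endpoints linearly. GI50 = concentration required for 50% inhibition of growth.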 The source made the active and inactive calls. Rule as the data show it: active = GI50 up to about 1.1 µM and inactive = higher.

Experiments:
Assay in all cases: inhibition of tumour cell growth, NCI panel, 48 h
SF-295 = tested on: SF-295
COLO 205 = tested on: COLO 205
SK-MEL-2 = tested on: SK-MEL-2
SR = tested on: SR
SW-620 = tested on: SW-620
SK-MEL-5 = tested on: SK-MEL-5
HCT-116 = tested on: HCT-116
SN12C = tested on: SN12C
NCI-H460 = tested on: NCI-H460
K562 = tested on: K562
A549 = tested on: A549
OVCAR-8 = tested on: OVCAR-8
SK-OV-3 = tested on: SK-OV-3
A498 = tested on: A498
LXFL 529 = tested on: LXFL 529
HOP-92 = tested on: HOP-92
ACHN = tested on: ACHN
NCI-H226 = tested on: NCI-H226
MDA-MB-231 = tested on: MDA-MB-231
T47D = tested on: T47D

CCCCCCCCCC(=O)OCC1OC(n2cc(F)c(=O)[nH]c2=O)C(NC(=O)OCc2ccccc2)C(OC(=O)CCCCCCCCC)C1O (stereo not given)
GI50 (SF-295): 40 µM (inactive)
GI50 (COLO 205): 32.8 µM (inactive)
GI50 (SK-MEL-2): 31 µM (inactive)
GI50 (SR): 17.5 µM (inactive)
GI50 (SW-620): 26.4 µM (inactive)
GI50 (SK-MEL-5): 20.3 µM (inactive)
GI50 (HCT-116): 14.9 µM (inactive)
GI50 (SN12C): 15.8 µM (inactive)
GI50 (NCI-H460): > 10 µM (inactive)
GI50 (K562): 30.1 µM (inactive)
GI50 (A549): 26.1 µM (inactive)
GI50 (OVCAR-8): 24.3 µM (inactive)
GI50 (SK-OV-3): > 100 µM (inactive)
GI50 (A498): 25.1 µM (inactive)
GI50 (LXFL 529): 24.7 µM (inactive)
GI50 (HOP-92): 18.2 µM (inactive)
GI50 (ACHN): 58.7 µM (inactive)

CCCCc1c2c([n+]([O-])c3c1CCCC3)CCCC2
GI50 (SF-295): 28 µM (inactive)
GI50 (COLO 205): > 100 µM (inactive)
GI50 (SR): 29.6 µM (inactive)
GI50 (SW-620): > 100 µM (inactive)
GI50 (NCI-H226): > 100 µM (inactive)
GI50 (SK-MEL-5): 28.4 µM (inactive)
GI50 (HCT-116): 65.2 µM (inactive)
GI50 (SN12C): > 100 µM (inactive)
GI50 (NCI-H460): > 100 µM (inactive)
GI50 (K562): 3.56 µM (inactive)
GI50 (A549): > 100 µM (inactive)
GI50 (OVCAR-8): > 100 µM (inactive)
GI50 (SK-OV-3): 98.4 µM (inactive)
GI50 (LXFL 529): > 100 µM (inactive)
GI50 (ACHN): 5.12 µM (inactive)

CCOC(=O)C(=O)Nc1c(C)cccc1C
GI50 (SF-295): > 100 µM (inactive)
GI50 (COLO 205): > 100 µM (inactive)
GI50 (SK-MEL-2): > 100 µM (inactive)
GI50 (SW-620): > 100 µM (inactive)
GI50 (NCI-H226): > 100 µM (inactive)
GI50 (HCT-116): > 100 µM (inactive)
GI50 (SN12C): > 100 µM (inactive)
GI50 (NCI-H460): > 100 µM (inactive)
GI50 (A549): > 100 µM (inactive)
GI50 (OVCAR-8): > 100 µM (inactive)
GI50 (SK-OV-3): > 100 µM (inactive)
GI50 (LXFL 529): > 100 µM (inactive)
GI50 (HOP-92): > 100 µM (inactive)
GI50 (ACHN): > 100 µM (inactive)

CCCC(=O)OCC1OC(n2cc(F)c(=O)[nH]c2=O)CC1OC(=O)CCC (stereo not given)
GI50 (SF-295): 0.127 µM (active)
GI50 (COLO 205): > 6.5 µM (inactive)
GI50 (SK-MEL-2): > 10 µM (inactive)
GI50 (SR): 0.034 µM (active)
GI50 (MDA-MB-231): > 10 µM (inactive)
GI50 (T47D): > 6.15 µM (inactive)
GI50 (SW-620): > 10 µM (inactive)
GI50 (NCI-H226): 5.53 µM (inactive)
GI50 (SK-MEL-5): 0.279 µM (active)
GI50 (HCT-116): 0.524 µM (active)
GI50 (SN12C): 0.346 µM (active)
GI50 (NCI-H460): 0.119 µM (active)
GI50 (K562): 1.16 µM (inactive)
GI50 (A549): 0.0578 µM (active)
GI50 (OVCAR-8): 0.203 µM (active)
GI50 (SK-OV-3): > 2.93 µM (inactive)
GI50 (A498): 0.484 µM (active)
GI50 (HOP-92): 0.509 µM (active)
GI50 (ACHN): 0.0441 µM (active)

Cc1n[nH]c(=S)n(C)c1=S
GI50 (SF-295): > 100 µM (inactive)
GI50 (COLO 205): > 100 µM (inactive)
GI50 (SK-MEL-2): > 100 µM (inactive)
GI50 (SW-620): > 100 µM (inactive)
GI50 (NCI-H226): > 100 µM (inactive)
GI50 (HCT-116): > 100 µM (inactive)
GI50 (SN12C): > 100 µM (inactive)
GI50 (NCI-H460): > 100 µM (inactive)
GI50 (K562): > 100 µM (inactive)
GI50 (A549): > 100 µM (inactive)
GI50 (OVCAR-8): > 100 µM (inactive)
GI50 (SK-OV-3): > 100 µM (inactive)
GI50 (A498): > 100 µM (inactive)
GI50 (LXFL 529): > 100 µM (inactive)
GI50 (HOP-92): 91.2 µM (inactive)
GI50 (ACHN): > 100 µM (inactive)

COC(=O)C(Cc1ccccc1)NC(=O)C(CCC(=O)OCc1ccccc1)NC(=O)OC(C)(C)C (stereo not given)
GI50 (SF-295): > 100 µM (inactive)
GI50 (COLO 205): > 100 µM (inactive)
GI50 (SK-MEL-2): > 100 µM (inactive)
GI50 (SR): 27.2 µM (inactive)
GI50 (MDA-MB-231): 48.1 µM (inactive)
GI50 (T47D): > 100 µM (inactive)
GI50 (SW-620): 63.8 µM (inactive)
GI50 (NCI-H226): 57.4 µM (inactive)
GI50 (SK-MEL-5): > 100 µM (inactive)
GI50 (HCT-116): 44.4 µM (inactive)
GI50 (SN12C): 82.6 µM (inactive)
GI50 (NCI-H460): 30.5 µM (inactive)
GI50 (K562): 26.9 µM (inactive)
GI50 (A549): > 100 µM (inactive)
GI50 (OVCAR-8): > 100 µM (inactive)
GI50 (SK-OV-3): > 100 µM (inactive)
GI50 (A498): > 100 µM (inactive)
GI50 (HOP-92): > 100 µM (inactive)
GI50 (ACHN): 68.9 µM (inactive)

CC1=C(c2nc3ccccc3s2)C(=O)OC1(C)C
GI50 (SF-295): > 100 µM (inactive)
GI50 (COLO 205): > 100 µM (inactive)
GI50 (SK-MEL-2): > 100 µM (inactive)
GI50 (SR): > 100 µM (inactive)
GI50 (SW-620): > 100 µM (inactive)
GI50 (NCI-H226): > 100 µM (inactive)
GI50 (SK-MEL-5): > 100 µM (inactive)
GI50 (HCT-116): > 100 µM (inactive)
GI50 (SN12C): > 100 µM (inactive)
GI50 (NCI-H460): > 100 µM (inactive)
GI50 (K562): > 100 µM (inactive)
GI50 (A549): > 100 µM (inactive)
GI50 (OVCAR-8): > 100 µM (inactive)
GI50 (SK-OV-3): > 100 µM (inactive)
GI50 (LXFL 529): > 100 µM (inactive)
GI50 (ACHN): > 100 µM (inactive)

Cc1ccc(NC(=O)/C(Cc2cc(=O)oc3cc(O)ccc23)=N\NC(C)(C)C)cc1C
GI50 (SF-295): > 100 µM (inactive)
GI50 (COLO 205): > 100 µM (inactive)
GI50 (SK-MEL-2): > 100 µM (inactive)
GI50 (SR): > 100 µM (inactive)
GI50 (MDA-MB-231): > 100 µM (inactive)
GI50 (T47D): > 100 µM (inactive)
GI50 (SW-620): > 100 µM (inactive)
GI50 (NCI-H226): > 100 µM (inactive)
GI50 (SK-MEL-5): > 100 µM (inactive)
GI50 (HCT-116): > 100 µM (inactive)
GI50 (SN12C): > 100 µM (inactive)
GI50 (NCI-H460): > 100 µM (inactive)
GI50 (K562): > 100 µM (inactive)
GI50 (A549): > 100 µM (inactive)
GI50 (OVCAR-8): > 100 µM (inactive)
GI50 (SK-OV-3): > 100 µM (inactive)
GI50 (A498): > 100 µM (inactive)
GI50 (HOP-92): > 100 µM (inactive)
GI50 (ACHN): > 100 µM (inactive)
